Assay results reported in patent US11542470B2, “Methods of differentiating stem cell-derived proprioceptors” (MEMORIAL SLOAN-KETTERING CANCER CENTER, priority 2016, dated 2023).

Tests used:
human stem cells = assay: Differentiation of human stem cells into sensory neuron subtypes in E8/E6 medium (TrkA, TrkB, TrkC); format: cell-based; conditions: CHIR99021 3 μM, 1.5 μM and 0.75 μM from day 2 through day 12, FIG. 3B
Description: An E8/E6 medium was used to differentiate human stem cells into sensory neurons, including nociceptors, proprioceptors, and mechanoceptors. […] On day 4, day 8, day 12, and day 16, the cells were measured for CD49d expression. […] On day 16 and day 20, cells were stained for BRN3A, TUJ1, and DAPI. […] TrkA is a nociceptor marker, TrkB is a mechanoreceptor marker, and TrkC is a proprioceptor marker.

rodent GSK3β homologs = conditions: cited from earlier work

Cc1c[nH]c(-c2cnc(NCCNc3ccc(C#N)cn3)nc2-c2ccc(Cl)cc2Cl)n1 [CHIR99021, 6-(2-(4-(2,4-dichlorophenyl)-5-(4-methyl-1H-imidazol-2-yl)pyrimidin-2-ylamino)ethylamino)nicotinonitrile]
generation of the three sensory neuron subtypes (nociceptors, proprioceptors, mechanoreceptors) (human stem cells): generated at similar efficiencies | IC50 values against rodent GSK3β homologs (rodent GSK3β homologs): nanomolar
